Measurements as given in patent publication US12599136B2, “Substituted isophthalic acid diamides and their use as herbicides” (Bayer Aktiengesellschaft, priority 2020, dated 2026).

Legend:
Type in all cases: in vivo
Alopecurus myosuroides [1] = assay: Post-emergence herbicidal action against ALOMY
How it was run: (§1)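 Foliar application at one-leaf stage of formulated test compounds, aqueous spray at 600–800 l/ha with 0.2% wetting agent. Greenhouse, optimal conditions, ~3 weeks; damage scored visually in % relative to untreated plants.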

Setaria viridis [2] = assay: Pre-emergence herbicidal action against SETVI
How it was run: (§2)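 Greenhouse pots of sandy loam held seeds covered with soil, onto which the compound was applied before emergence. An aqueous suspension or emulsion of WP or EC was used at 600 to 800 l/ha with 0.2% wetting agent. Percent damage was judged visually at 3 weeks.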

Alopecurus myosuroides [3] = assay: Pre-emergence herbicidal action against ALOMY; conditions: visual score after 3 weeks vs untreated controls
How it was run: as §2

Stellaria media [4] = assay: Pre-emergence herbicidal action against STEME
How it was run: as §2

Amaranthus retroflexus [5] = assay: Pre-emergence herbicidal action against AMARE; conditions: visual score after 3 weeks vs untreated controls
How it was run: as §2

Abutilon theophrasti [6] = assay: Post-emergence herbicidal action against ABUTH
How it was run: as §1

Veronica persica [7] = assay: Post-emergence herbicidal action against VERPE; conditions: visual assessment about 3 weeks after treatment
How it was run: as §1

Avena fatua [8] = assay: Post-emergence herbicidal action against AVEFA; conditions: visual assessment about 3 weeks after treatment
How it was run: as §1

Pharbitis purpurea [9] = assay: Post-emergence herbicidal action against PHBPU; conditions: visual assessment about 3 weeks after treatment
How it was run: as §1

Matricaria inodora [10] = assay: Pre-emergence herbicidal action against MATIN; conditions: visual score after 3 weeks vs untreated controls
How it was run: as §2

Lolium rigidum [11] = assay: Post-emergence herbicidal action against LOLRI
Protocol: (§3) Seeds of monocotyledonous and dicotyledonous weed and crop plants are laid out in sandy loam soil in wood-fiber pots, covered with soil and cultivated in a greenhouse under good growth conditions. 2 to 3 weeks after sowing, the test plants are treated at the one-leaf stage. The compounds of the invention, formulated in the form of wettable powders (WP) or as emulsion concentrates (EC), are then sprayed onto the green parts of the plants in the form of an aqueous suspension or emulsion at a water application rate equivalent to 600 to 800 l/ha, with addition of 0.2% wetting agent. After the test plants have been left to stand in the greenhouse under optimal growth conditions for about 3 weeks, the action of the preparations is assessed visually in comparison to untreated controls (herbicidal action in percent (%): 100% activity=the plants have died, 0% activity=like control plants). […] The tables below illustrate, in an illustrative manner, the post-emergence herbicidal action of the compounds of the invention, the herbicidal activity being stated in percent.

Abutilon theophrasti [12] = assay: Pre-emergence herbicidal action against ABUTH; conditions: visual score after 3 weeks vs untreated controls
How it was run: as §2

Hordeum murinum = assay: Pre-emergence herbicidal action against HORMU; conditions: visual score after 3 weeks vs untreated controls
How it was run: as §2

Setaria viridis [13] = assay: Post-emergence herbicidal action against SETVI; conditions: visual assessment about 3 weeks after treatment
How it was run: as §1

Echinochloa crus-galli [14] = assay: Pre-emergence herbicidal action against ECHCG; conditions: 320 g/ha; visual score after 3 weeks vs untreated controls
How it was run: as §2

Pharbitis purpurea [15] = assay: Pre-emergence herbicidal action against PHBPU; conditions: 320 g/ha; visual score after 3 weeks vs untreated controls
How it was run: as §2

Lolium rigidum [16] = assay: Pre-emergence herbicidal action against LOLRI
How it was run: as §2

Cyperus esculentus [17] = assay: Post-emergence herbicidal action against CYPES; conditions: 80 g/ha, visual assessment about 3 weeks after treatment
Protocol: as §3

Avena fatua [18] = assay: Pre-emergence herbicidal action against AVEFA; conditions: visual score after 3 weeks vs untreated controls
How it was run: as §2

Viola tricolor [19] = assay: Pre-emergence herbicidal action against VIOTR
How it was run: as §2

Matricaria inodora [20] = assay: Post-emergence herbicidal action against MATIN; conditions: 80 g/ha, visual assessment about 3 weeks after treatment
How it was run: as §1

Viola tricolor [21] = assay: Post-emergence herbicidal action against VIOTR; conditions: 80 g/ha
How it was run: as §1

Cyperus esculentus [22] = assay: Pre-emergence herbicidal action against CYPES; conditions: visual score after 3 weeks vs untreated controls
How it was run: as §2

Amaranthus retroflexus [23] = assay: Post-emergence herbicidal action against AMARE; conditions: visual assessment about 3 weeks after treatment
How it was run: as §1

Veronica persica [24] = assay: Pre-emergence herbicidal action against VERPE; conditions: 320 g/ha
How it was run: as §2

Polygonum convolvulus [25] = assay: Pre-emergence herbicidal action against POLCO
How it was run: as §2

Echinochloa crus-galli [26] = assay: Post-emergence herbicidal action against ECHCG; conditions: visual assessment about 3 weeks after treatment
How it was run: as §1

Polygonum convolvulus [27] = assay: Post-emergence herbicidal action against POLCO; conditions: visual assessment about 3 weeks after treatment
How it was run: as §1

Stellaria media [28] = assay: Post-emergence herbicidal action against STEME; conditions: visual assessment about 3 weeks after treatment
How it was run: as §1

Cn1nnnc1NC(=O)c1ccc(C(F)(F)F)c(C(=O)N2CCCC2)c1Cl [Example 1-152]
Post-emergence action against ALOMY (Alopecurus myosuroides [1]; 20 g/ha): 80%
Post-emergence action against ALOMY (Alopecurus myosuroides [1]; 80 g/ha): 90%
Pre-emergence action against SETVI (Setaria viridis [2]; 20 g/ha): 100%
Pre-emergence action against SETVI (Setaria viridis [2]; 80 g/ha): 100%
Pre-emergence action against SETVI (Setaria viridis [2]; 320 g/ha): 100%
Pre-emergence action against ALOMY (Alopecurus myosuroides [3]; 20 g/ha): 80%
Pre-emergence action against ALOMY (Alopecurus myosuroides [3]; 80 g/ha): 90%
Pre-emergence action against ALOMY (Alopecurus myosuroides [3]; 320 g/ha): 100%
Pre-emergence action against STEME (Stellaria media [4]; 20 g/ha): 90%
Pre-emergence action against STEME (Stellaria media [4]; 80 g/ha): 100%
Pre-emergence action against STEME (Stellaria media [4]; 320 g/ha): 100%
Pre-emergence action against AMARE (Amaranthus retroflexus [5]; 20 g/ha): 100%
Pre-emergence action against AMARE (Amaranthus retroflexus [5]; 80 g/ha): 100%
Pre-emergence action against AMARE (Amaranthus retroflexus [5]; 320 g/ha): 100%
Post-emergence action against ABUTH (Abutilon theophrasti [6]; 5 g/ha): 100%
Post-emergence action against ABUTH (Abutilon theophrasti [6]; 20 g/ha): 100%
Post-emergence action against ABUTH (Abutilon theophrasti [6]; 80 g/ha): 100%
Post-emergence action against VERPE in % (Veronica persica [7]; 20 g/ha): 90%
Post-emergence action against VERPE in % (Veronica persica [7]; 80 g/ha): 90%
Post-emergence action against AVEFA in % (Avena fatua [8]; 20 g/ha): 90%
Post-emergence action against AVEFA in % (Avena fatua [8]; 80 g/ha): 100%
Post-emergence action against PHBPU in % (Pharbitis purpurea [9]; 5 g/ha): 80%
Post-emergence action against PHBPU in % (Pharbitis purpurea [9]; 20 g/ha): 90%
Post-emergence action against PHBPU in % (Pharbitis purpurea [9]; 80 g/ha): 90%
Pre-emergence action against MATIN (Matricaria inodora [10]; 20 g/ha): 100%
Pre-emergence action against MATIN (Matricaria inodora [10]; 80 g/ha): 100%
Pre-emergence action against MATIN (Matricaria inodora [10]; 320 g/ha): 100%
Post-emergence action against LOLRI in % (Lolium rigidum [11]; 20 g/ha): 90%
Post-emergence action against LOLRI in % (Lolium rigidum [11]; 80 g/ha): 100%
Pre-emergence action against ABUTH (Abutilon theophrasti [12]; 20 g/ha): 100%
Pre-emergence action against ABUTH (Abutilon theophrasti [12]; 80 g/ha): 100%
Pre-emergence action against ABUTH (Abutilon theophrasti [12]; Dosage column 320 g/ha (heading prints 3200 g/ha)): 100%
Pre-emergence action against HORMU (Hordeum murinum; 80 g/ha): 90%
Pre-emergence action against HORMU (Hordeum murinum; 320 g/ha): 100%
Post-emergence action against SETVI in % (Setaria viridis [13]; 5 g/ha): 100%
Post-emergence action against SETVI in % (Setaria viridis [13]; 20 g/ha): 100%
Post-emergence action against SETVI in % (Setaria viridis [13]; 80 g/ha): 100%
Pre-emergence action against ECHCG (Echinochloa crus-galli [14]): 100%
Pre-emergence action against PHBPU (Pharbitis purpurea [15]): 80%
Pre-emergence action against LOLRI (Lolium rigidum [16]; 80 g/ha): 80%
Pre-emergence action against LOLRI (Lolium rigidum [16]; 320 g/ha): 100%
Post-emergence action against CYPES in % (Cyperus esculentus [17]): 80%
Pre-emergence action against AVEFA (Avena fatua [18]; 80 g/ha): 100%
Pre-emergence action against AVEFA (Avena fatua [18]; 320 g/ha): 100%
Pre-emergence action against VIOTR (Viola tricolor [19]; 80 g/ha): 100%
Pre-emergence action against VIOTR (Viola tricolor [19]; 320 g/ha): 100%
Post-emergence action against MATIN in % (Matricaria inodora [20]): 90%
Post-emergence action against VIOTR in % (Viola tricolor [21]): 90%
Pre-emergence action against CYPES (Cyperus esculentus [22]; 80 g/ha): 90%
Pre-emergence action against CYPES (Cyperus esculentus [22]; 320 g/ha): 100%
Post-emergence action against AMARE in % (Amaranthus retroflexus [23]; 5 g/ha): 100%
Post-emergence action against AMARE in % (Amaranthus retroflexus [23]; 20 g/ha): 100%
Post-emergence action against AMARE in % (Amaranthus retroflexus [23]; 80 g/ha): 100%
Pre-emergence action against VERPE (Veronica persica [24]): 90%
Pre-emergence action against POLCO (Polygonum convolvulus [25]; 80 g/ha): 80%
Pre-emergence action against POLCO (Polygonum convolvulus [25]; 320 g/ha): 100%
Post-emergence action against ECHCG in % (Echinochloa crus-galli [26]; 5 g/ha): 80%
Post-emergence action against ECHCG in % (Echinochloa crus-galli [26]; 20 g/ha): 90%
Post-emergence action against ECHCG in % (Echinochloa crus-galli [26]; 80 g/ha): 100%
Post-emergence action against POLCO in % (Polygonum convolvulus [27]; 5 g/ha): 80%
Post-emergence action against POLCO in % (Polygonum convolvulus [27]; 80 g/ha): 80%
Post-emergence action against STEME in % (Stellaria media [28]; 5 g/ha): 90%
Post-emergence action against STEME in % (Stellaria media [28]; 20 g/ha): 90%
Post-emergence action against STEME in % (Stellaria media [28]; 80 g/ha): 100%
